Results published in US12024571B2, “Anti-erythropoietin receptor peptide” (Epo-Med Inc., priority 2018, dated 2024).
Bridge positions count the residues as written; N and C are the ends. Square brackets hold non-standard residues; d marks the D form. Ala(benzothiazol-2-yl) = N[C@@H](Cc1nc2ccccc2s1)C(=O)O

Columns and labels:
[1] = system: human pancreatic cancer derived AsPC-1 cells; assay: AsPC-1 cell proliferation, WST assay; format: cell-based; conditions: 10, 30 or 100 μM, 72 hours, FIG. 43
Experimental: Human pancreatic cancer derived AsPC-1 cells (ECACC, 96020930) were passaged (twice/week) under the condition of 37° C. and 5% CO2-95% air using an RPMI-1640 medium (Sigma, R8758-500 ML) comprising 10% fetal bovine serum (biowest, S182H-500) and 1 mM sodium pyruvate (gibco, 11360-070). The AsPC-1 cells were collected from a culture dish using 0.05% trypsin-0.02% EDTA solution (Sigma, T4174-100 ML). The cells were suspended in the medium and then seeded on a 96-well microplate (3×10^3/0.05 mL/well). After culturing the cells overnight, a medium comprising the test compounds (total of 43 compounds, final concentration of 150 μM) was added (0.05 mL/well, 3 wells/test compound). After 72 hours, the cell proliferation capability for each well was measured by a WST assay (DOJINDO LABORATORIES, Cell Counting Kit-8), and the inhibition ratio for each test compound against the control (test compound-free well) was calculated.
A WST assay is a viable cell count measuring method, which uses water-soluble tetrazolium salt WST-8 as a coloring reagent and uses water-soluble formazan generated by reduction of WST-8 as an indicator of viable cell count. NADH produced by a dehydrogenase in a cell converts WST-8 to water-soluble formazan. Since the generated water-soluble formazan has the maximum absorbance at about 450 nm, the viable cell count is indicated by measuring the absorbance at such a wavelength region.
Human pancreatic cancer derived AsPC-1 cells (ECACC, 96020930) were cultured, collected, and seeded on a 96-well microplate (3×10^3/0.05 mL/well) in the same manner as Example 3. After culturing the cells overnight, a medium comprising the test compounds (10, 30, or 100 μM) was added (0.05 mL/well, 3 wells/test compound). After 72 hours, the cell proliferation capability for each well was measured by a WST assay (DOJINDO LABORATORIES, Cell Counting Kit-8), and the inhibition ratio for each test compound against the control (test compound-free well) was computed.

[2] = system: human liver cancer derived HepG2 cells; assay: Lethal effect of synthetic peptides on HepG2 cells (Trypan blue positive cell count); format: cell-based; conditions: 120, 60, 30 or 15 μM, 24 hours; FIGS. 34 to 37
[3] = system: human T cell leukemia derived ATL-2 cells; assay: ATL-2 cell proliferation, WST assay; format: cell-based; conditions: 150 μM, 72 hours, FIG. 39
Experimental: Human T cell leukemia derived ATL-2 cells (provided by Dr. Maeda at the Kyoto University) were passaged (twice/week) under the condition of 37° C. and 5% CO2-95% air using an RPMI-1640 medium (Sigma, R8758-500 mL) comprising 10% fetal bovine serum (biowest, S182H-500). The ATL-2 cells were collected from a culture flask. The cells were suspended in the medium and then seeded on a 96-well microplate (3×10^3/0.05 mL/well). After culturing the cells overnight, a medium comprising the test compounds (total of 32 compounds, final concentration of 150 μM) was added (0.05 mL/well, 3 wells/test compound). After 72 hours, the cell proliferation capability for each well was measured by a WST assay (DOJINDO LABORATORIES, Cell Counting Kit-8), and the inhibition ratio for each test compound against the control (test compound-free well) was calculated.

[4] = system: human pancreatic cancer derived AsPC-1 cells; assay: Tumor growth in AsPC-1 cancer-bearing nude mouse model; format: in vivo; conditions: intraperitoneal
Experimental: (§1) Human pancreatic cancer derived AsPC-1 cells (ECACC, 96020930) were cultured and collected in the same manner as Example 3, suspended in the RPMI-1640 medium described above comprising 10% Matrigel (BD Bioscience, 354234), and transplanted subcutaneously to the right side on the back of a 6-week-old male nude mouse (SLC, BALB/cSlc-nu/nu) (5×10^6/0.1 mL/mouse). The length (L) and width (W) of the tumor were measured using a digital caliper. When the tumor volume (V) calculated from the formula V=L×W^2/2 reached about 150 to 200 mm^3, the mice were separated into groups and administered with test compounds (total of 8 compounds including GT-11263). Saline was administered to a control group. The compounds were administered intraperitoneally (0.1 mL/mouse, 3 to 5 mice/test compound) 3 times daily (one hour interval, a total of 0.2 mg/day), 3 times a week for 2 weeks. The tumor size and body weight were measured twice a week to monitor the status of tumor growth and the effect of the administration of test compounds.
In the same manner as Example 5, human pancreatic cancer derived AsPC-1 cells were transplanted subcutaneously to the right side on the back of a 6-week-old male nude mouse (SLC, BALB/cSlc-nu/nu) (5×10^6/0.1 mL/mouse). The length (L) and width (W) of the tumor were measured using a digital caliper. When the tumor volume (V) calculated from the formula V=L×W^2/2 reached about 150 to 200 mm^3, the mice were separated into groups and administered with test compounds (GT-11269, GT-11309, and GT-11350). Saline was administered to a control group. The compounds were administered intraperitoneally (0.1 mL/mouse, 5 mice/test compound) 3 times daily (one hour interval, a total of 0.5 mg/day), twice a week for 4 weeks. The tumor size and body weight were measured twice a week to monitor the effect of the administration of test compounds (FIG. 45).
(§2) In the same manner as Example 5, human pancreatic cancer derived AsPC-1 cells were transplanted subcutaneously to the right side on the back of a 6-week-old male nude mouse (SLC, BALB/cSlc-nu/nu), and when the tumor volume (V) reached about 150 to 200 mm^3, the mice were separated into groups and administered with test compounds (GT-11350). Saline was administered to a control group. The compounds were administered intraperitoneally (0.1 mL/mouse) 3 times daily (one hour interval, a total of 0.1 mg, 0.2 mg, or 0.4 mg/day), twice a week for 4 weeks. The tumor size and body weight were measured twice a week to monitor the effect of the dose of test compounds (FIG. 49).
as §2, with “of” for “of 0.1 mg,”, “mg/day)” for “mg,”, “once daily (0.2” for “0.4”, “administration” for “dose”, “compounds.” for “compounds (FIG. 49).”

[5] = system: human leukemia derived UT-7 cells; assay: Epo dependent UT-7 cell proliferation, WST assay; format: cell-based; conditions: Epo 1 U/mL, 4 days; GT-11309 1 to 100 μM, antibodies 1 to 100 μg/mL; FIG. 42
Experimental: Human leukemia derived UT-7 cells (provided by Dr. Fujita at the Hokkaido University) were passaged (twice/week) under the condition of 37° C. and 5% CO2-95% air using a D-MEM medium (Sigma, D5796-500 ML) comprising recombinant human erythropoietin (Epo, 2 U/mL) and 10% fetal bovine serum (biowest, S182-H-500), and cultured for a total of 9 weeks. The Epo treated UT-7 cells were washed three times and seeded on a 96-well microplate (1×10^4/well). An anti-Epo monoclonal antibody (clone R6, provided by Dr. Masuda at the Kyoto University, 1 to 100 μg/mL), anti-EpoR monoclonal antibody (clone 713210, R&D Systems, MAB3073, 1 to 100 μg/mL) or GT-11309 (1 to 100 μM), in the presence of Epo (0 to 10 U/mL) or Epo (1 U/mL), was added. After 4 days of culture, the cell proliferation capability for each well was measured as absorbance at 450 nm by a WST assay (DOJINDO LABORATORIES, Cell Counting Kit-8).

[6] = system: human breast cancer derived HCC1395 cells; assay: HCC1395 breast cancer cell proliferation, amount of ATP (CellTiter-Glo 2.0); format: cell-based; conditions: 0 to 100 μM, 72 hours; FIG. 44 left
Experimental: (§3) Human breast cancer derived HCC1395 cells (ATCC, CRL-2327) and HCC1806 (ATCC, CRL-2335) were cultured, collected, and seeded on a 384-well microplate (1×10^3 and 3×10^3/0.04 mL/well). After culturing the cells overnight, a medium comprising GT-11350 (0 to 100 μM) was added (0.01 mL/well). After 72 hours, the cell proliferation capability for each well against the control (test compound-free well) was calculated using the amount of ATP as an indicator, which was measured using CellTiter-Glo 2.0 (Promega, G9242).

[7] = Hematocrit value and blood hemoglobin concentration in AsPC-1 cancer-bearing mice; format: in vivo, mouse; conditions: day 4 from final administration, 0.1, 0.2 or 0.4 mg/day; FIG. 50
Experimental: (§4) Blood was drawn on day 6 from the final administration from an AsPC-1 cancer-bearing mouse administered with GT-11269, GT-11309, or GT-11350 by the same protocol, and the hematocrit value was measured by the capillary method using a high speed centrifuge. The blood hemoglobin concentration was also measured using a commercially available measurement kit (BioAssay Systems, DIHB-250) (FIG. 47).
as §4, with “4” for “6”, “with” for “with GT-11269, GT-11309, or”, “50).” for “47).”

[8] = system: human breast cancer derived HCC1806 cells; assay: HCC1806 breast cancer cell proliferation, amount of ATP (CellTiter-Glo 2.0); format: cell-based; conditions: 0 to 100 μM, 72 hours; FIG. 44 right
Experimental: as §3

[9] = Body weight of AsPC-1 cancer-bearing mice given peptides; format: in vivo, mouse; conditions: total 0.1, 0.2 or 0.4 mg/day, twice a week for 4 weeks; FIG. 49
Experimental: as §1, with “The compounds were administered intraperitoneally (0.1 mL/mouse, 3 to 5 mice/test compound) 3 times daily (one hour interval, a total of 0.2 mg/day), 3 times a week for 2 weeks.” left out
In the same manner as Example 5, human pancreatic cancer derived AsPC-1 cells were transplanted subcutaneously to the right side on the back of a 6-week-old male nude mouse (SLC, BALB/cSlc-nu/nu) (5×10^6/0.1 mL/mouse). The length (L) and width (W) of the tumor were measured using a digital caliper. When the tumor volume (V) calculated from the formula V=L×W^2/2 reached about 150 to 200 mm^3, the mice were separated into groups and administered with test compounds (GT-11269, GT-11309, and GT-11350). […]

Substance | proliferation inhibiting action against AsPC-1 cells (inhibition ratio against control) [1] | HepG2 cell killing effect compared with YS12 (Trypan blue positive cells per 1 mm^2) [2] | proliferation inhibiting action on ATL-2 cells (inhibition ratio against control) [3] | antitumor effect (relative tumor volume) ([4]; 3 times daily, total 0.2 mg/day, 3 times a week for 2 weeks, FIG. 40) | Epo dependent cancer cell proliferation (UT-7) [5] | proliferation suppressing capability against breast cancer cell line HCC1395 [6] | anti-tumor effect, 3 times daily versus once daily ([4]; 0.2 mg/day, 3 times daily or once daily, twice a week for 4 weeks, FIG. 51) | anti-tumor effect (relative tumor volume) by dose ([4]; 3 times daily, total 0.1, 0.2 or 0.4 mg/day, twice a week for 4 weeks, FIG. 49) | blood hemoglobin concentration [7] | hematocrit value [7] | proliferation suppressing capability against breast cancer cell line HCC1806 [8] | body weight [9]
Ac-SCHYGPLT(2-benzothiazolylalanine)VCK-NH2 (Ac-SCHYGPLT[Ala(benzothiazol-2-yl)]VCK-NH2; disulfide 2-11 (inferred)) [GT-11309] | potent proliferation inhibiting action | equivalent or greater than that of YS12 | potent proliferation inhibiting action | potent and had an early manifestation of effect | suppressed Epo dependent cancer cell proliferation | – | – | – | – | – | – | –
Ac-SCHYGPMT(2-benzothiazolylalanine)VCK-NH2 [GT-11350] | potent proliferation inhibiting action | – | – | – | – | exhibited proliferation suppressing capability | same anti-tumor effect for both 3 times daily and once daily administration methods | dose dependent anti-tumor effect | none of the doses had an effect | none of the doses had an effect | exhibited proliferation suppressing capability | not affected
